Tests used:
Details in all cases: 48 h
NOMO1 [1] = test: AUC of viability dose-response curve (% viability x log10 dose units); higher = less sensitive
Method in brief: (§1)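 In 1536-well plates, leukemia cells adapted to each medium (500 or 1000 cells/well) were exposed for 48 h at 37°C to library compounds in DMSO across 11 threefold doses, 47 μM down to 0.79 nM. Viability was read by CellTiter-Glo One luminescence and normalised per plate to DMSO and cell-free wells. A four-parameter log-logistic fit over log10 doses was integrated by trapezoidal rule. This yielded the area under the curve, with over-full-viability curves scaled and quality-control failures dropped.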

P12-Ichikawa [2] = test: as above
Method in brief: as §1

SEM cells [3] = test: as above
Method in brief: as §1

NOMO1 [4] = test: cell viability relative to DMSO control; higher = less cytotoxic
Method in brief: (§2)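 Before seeding, each leukemia line was adapted for at least four passages in each medium. NOMO1 or SEM cells (500 cells/well) and P12-Ichikawa cells (1000 cells/well) went into 1536-well plates at 5 μl, then received library compounds in DMSO by pin dosing across 11 threefold concentrations, 47 μM to 0.79 nM. Readout was CellTiter-Glo One luminescence after 48 h at 37°C, and viability is given as a per-plate percentage of DMSO wells, with cell-free wells as background.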

P12-Ichikawa [5] = test: as above
Method in brief: as §2

SEM cells [6] = test: as above
Method in brief: as §2

NC(=O)c1cccc(-c2cc(Nc3ccc(OC(F)(F)F)cc3)ncn2)c1
AUC of viability dose-response curve
Details	NOMO1 [1]	P12-Ichikawa [2]	SEM cells [3]
HPLM + 10% dialyzed FBS	457	469	441
RPMI 5 mM glucose + 10% FBS	436	466	464
RPMI 5 mM glucose + 10% dialyzed FBS	428	460	423

cell viability [%]
Details	NOMO1 [4]	P12-Ichikawa [5]	SEM cells [6]
HPLM + 10% dialyzed FBS, 0.000781 µM	88.6	101	82.4
HPLM + 10% dialyzed FBS, 0.00234 µM	99.5	96.4	92.7
HPLM + 10% dialyzed FBS, 0.00702 µM	96	98.5	95.5
HPLM + 10% dialyzed FBS, 0.0211 µM	93.9	101	91.9
HPLM + 10% dialyzed FBS, 0.0632 µM	108	109	87.2
HPLM + 10% dialyzed FBS, 0.19 µM	101	104	111
HPLM + 10% dialyzed FBS, 0.569 µM	97.2	105	101
HPLM + 10% dialyzed FBS, 1.71 µM	94.1	102	106
HPLM + 10% dialyzed FBS, 5.12 µM	103	97	87.8
HPLM + 10% dialyzed FBS, 15.4 µM	84.5	99.3	82
HPLM + 10% dialyzed FBS, 46.1 µM	81.4	89.5	69.3
RPMI 5 mM glucose + 10% FBS, 0.000781 µM	85.8	102	105
RPMI 5 mM glucose + 10% FBS, 0.00234 µM	91	97.7	116
RPMI 5 mM glucose + 10% FBS, 0.00702 µM	93.4	98	106
RPMI 5 mM glucose + 10% FBS, 0.0211 µM	95.7	94.2	111
RPMI 5 mM glucose + 10% FBS, 0.0632 µM	90	105	104
RPMI 5 mM glucose + 10% FBS, 0.19 µM	103	107	117
RPMI 5 mM glucose + 10% FBS, 0.569 µM	103	105	112
RPMI 5 mM glucose + 10% FBS, 1.71 µM	85.8	98.7	111
RPMI 5 mM glucose + 10% FBS, 5.12 µM	90.3	91.5	113
RPMI 5 mM glucose + 10% FBS, 15.4 µM	84.1	96.1	101
RPMI 5 mM glucose + 10% FBS, 46.1 µM	80.5	80.3	69.1
RPMI 5 mM glucose + 10% dialyzed FBS, 0.000781 µM	91.7	99.5	80
RPMI 5 mM glucose + 10% dialyzed FBS, 0.00234 µM	94.7	85.7	91.6
RPMI 5 mM glucose + 10% dialyzed FBS, 0.00702 µM	84.3	97.1	96.5
RPMI 5 mM glucose + 10% dialyzed FBS, 0.0211 µM	86.1	91.9	91.8
RPMI 5 mM glucose + 10% dialyzed FBS, 0.0632 µM	93.3	111	95
RPMI 5 mM glucose + 10% dialyzed FBS, 0.19 µM	92.8	104	98.2
RPMI 5 mM glucose + 10% dialyzed FBS, 0.569 µM	88.2	96.1	96.1
RPMI 5 mM glucose + 10% dialyzed FBS, 1.71 µM	89.1	98.8	104
RPMI 5 mM glucose + 10% dialyzed FBS, 5.12 µM	94.2	100	84.8
RPMI 5 mM glucose + 10% dialyzed FBS, 15.4 µM	79.6	95.8	68.9
RPMI 5 mM glucose + 10% dialyzed FBS, 46.1 µM	91.7	81.5	54.1

O=C1NC(=O)/C(=C/c2ccc3nccnc3c2)S1
AUC of viability dose-response curve
Details	NOMO1 [1]	P12-Ichikawa [2]	SEM cells [3]
HPLM + 10% dialyzed FBS	457	464	441
RPMI 5 mM glucose + 10% FBS	444	443	441
RPMI 5 mM glucose + 10% dialyzed FBS	439	453	428

cell viability [%]
Details	NOMO1 [4]	P12-Ichikawa [5]	SEM cells [6]
HPLM + 10% dialyzed FBS, 0.000781 µM	108	111	117
HPLM + 10% dialyzed FBS, 0.00234 µM	124	111	123
HPLM + 10% dialyzed FBS, 0.00702 µM	116	117	128
HPLM + 10% dialyzed FBS, 0.0211 µM	118	107	114
HPLM + 10% dialyzed FBS, 0.0632 µM	106	115	120
HPLM + 10% dialyzed FBS, 0.19 µM	118	122	113
HPLM + 10% dialyzed FBS, 0.569 µM	113	102	109
HPLM + 10% dialyzed FBS, 1.71 µM	125	116	105
HPLM + 10% dialyzed FBS, 5.12 µM	102	103	97
HPLM + 10% dialyzed FBS, 15.4 µM	95.9	97.5	104
HPLM + 10% dialyzed FBS, 46.1 µM	89.3	99.7	102
RPMI 5 mM glucose + 10% FBS, 0.000781 µM	98.4	110	120
RPMI 5 mM glucose + 10% FBS, 0.00234 µM	130	112	136
RPMI 5 mM glucose + 10% FBS, 0.00702 µM	109	119	115
RPMI 5 mM glucose + 10% FBS, 0.0211 µM	107	114	126
RPMI 5 mM glucose + 10% FBS, 0.0632 µM	101	115	136
RPMI 5 mM glucose + 10% FBS, 0.19 µM	105	109	120
RPMI 5 mM glucose + 10% FBS, 0.569 µM	111	98.7	128
RPMI 5 mM glucose + 10% FBS, 1.71 µM	100	106	115
RPMI 5 mM glucose + 10% FBS, 5.12 µM	97.1	95.2	73
RPMI 5 mM glucose + 10% FBS, 15.4 µM	86.6	95.9	99.5
RPMI 5 mM glucose + 10% FBS, 46.1 µM	103	91.4	103
RPMI 5 mM glucose + 10% dialyzed FBS, 0.000781 µM	118	110	–
RPMI 5 mM glucose + 10% dialyzed FBS, 0.00234 µM	109	111	–
RPMI 5 mM glucose + 10% dialyzed FBS, 0.00702 µM	132	126	–
RPMI 5 mM glucose + 10% dialyzed FBS, 0.0211 µM	110	123	–
RPMI 5 mM glucose + 10% dialyzed FBS, 0.0632 µM	111	114	–
RPMI 5 mM glucose + 10% dialyzed FBS, 0.19 µM	118	113	–
RPMI 5 mM glucose + 10% dialyzed FBS, 0.569 µM	103	115	–
RPMI 5 mM glucose + 10% dialyzed FBS, 1.71 µM	106	102	–
RPMI 5 mM glucose + 10% dialyzed FBS, 5.12 µM	92.6	96.2	–
RPMI 5 mM glucose + 10% dialyzed FBS, 15.4 µM	88.8	104	–
RPMI 5 mM glucose + 10% dialyzed FBS, 46.1 µM	95.3	97.1	–

c1ccc(CNc2nc(NCc3ccccc3)c3ccccc3n2)cc1
AUC of viability dose-response curve
Details	NOMO1 [1]	P12-Ichikawa [2]	SEM cells [3]
HPLM + 10% dialyzed FBS	450	473	440
RPMI 5 mM glucose + 10% FBS	466	465	462
RPMI 5 mM glucose + 10% dialyzed FBS	463	465	470

cell viability [%], HPLM + 10% dialyzed FBS
Details	NOMO1 [4]	SEM cells [6]
0.000781 µM	92.7	104
0.00234 µM	114	116
0.00702 µM	144	117
0.0211 µM	121	125
0.0632 µM	138	130
0.19 µM	134	132
0.569 µM	148	136
1.71 µM	158	127
5.12 µM	132	136
15.4 µM	118	133
46.1 µM	5.97	32.5
